{
  "source": "patent US20100041089A1",
  "about": "“IMPROVED METHOD FOR DETECTING CHEMICAL […]” (priority 2006, published 2010)",
  "tested_on": "yeast genes (expressed mRNA)",
  "experiment": "DNA chip measurement of expressed mRNA of yeast genes after culture with a toxic chemical substance",
  "assay_type": "cell-based, Saccharomyces cerevisiae S288C",
  "description": "Yeast (Saccharomyces cerevisiae S288C (a SUC2mal mel gap2 CUP1)) were cultured at 25° C. on YPD medium (yeast extract 1%, polypeptone 2%, glucose 2%). One of toxic chemical substances was added to the cell at logarithmic growth phase, and the cell was further cultured for two hours. Cell was cultured without any chemical substance in the same condition, and was used as a control. Concentrations of the chemical substances were defined to inhibit the growth of the yeast but not lead to death.\nAfter the completion of cultivation, the culture was centrifuged to collect the cells. To the cells, sodium acetate buffer (50 mM sodium acetate, 10 mM EDTA, 1% SDS) was added, and the mixture was shaken at 65° C. for five minutes, followed by returning to room temperature, and obtaining the supernatant, which procedure was repeated two times. To the supernatant, ½ amount of a solution of phenol/chloroform (1:1) was added, and the mixture was centrifuged to give a supernatant, an equal amount of chloroform was added, and the mixture was centrifuged to give a supernatant. To the supernatant, an equal amount of isopropanol containing 0.3 M sodium acetate was added, and the mixture was allowed to stand at room temperature for 30 minutes, after which the mixture was centrifuged to give sediment of the whole RNAs. Seventy % ethanol was added to the sediment, and the mixture was again centrifuged to give sediment, which was then dried and dissolved in water. mRNA was isolated from the whole RNAs as followings. In view of the fact that a poly A chain is attached to the 3′ terminus of mRNA, a polynucleotide having a poly T structure which was immobilized on the surface of latex beads was used to trap the mRNA, and then the mRNA was washed and eluted with spine column (Oligotex-dT30<Super>mRNA Purification Kit, Takara). Reverse transcription of the mRNA was conducted with a reverse transcriptase (Super Script II Reverse Transcriptase; catalogue No. 18064-014, GibcoBRL) using fluorescence-labeled nucleotides to give cDNAs that were introduced with Cy3-dUTP or Cy5-dUTP during the reverse transcription.\nThe labeled cDNAs were dissolved in TE buffer (10 mM Tris-HCl/1 mM EDTA, pH 8.0), and the solution was dropped on the DNA chip containing the whole genes of yeast (DNA Chip Research Inc. Japan) so that the cDNAs were hybridized on the DNA chip at 65° C. for over 12 hours. The fluoresces intensity of the DNA chip was read with a scanner, and the ratio relative to the fluorescence intensity resulting from the absence of chemical substance was estimated as the following, which is shown in Tables 1 to 9.\nIn the Tables, “Intensity” indicated in the rightmost column is a value of the level of expressed mRNA of each gene in control cells as divided by the average level of the expressions of the whole genes. A gene of which mRNA level is lower in control, and is higher in cases of addition of chemical substance, is especially useful in the detection of toxic substances.\nHere, when a ratio of an amount of mRNA expressed in the presence of the chemical substance to an amount of mRNA expressed in the absence of the chemical substance is two or more, then it is considered significant.",
  "data": [
    {"molecule": "CN(C)C(=S)SSC(=S)N(C)C", "note": "[(10), Tetramethylthiuram disulfide]", "values": [
      {"measurement": "The level of expressed mRNA in the presence of chemical substance/The level of expressed mRNA in the absence of chemical substance", "setting": "yeast gene YNL077W", "value": 5.1},
      {"measurement": "The level of expressed mRNA in the presence of chemical substance/The level of expressed mRNA in the absence of chemical substance", "setting": "yeast gene YNL092W, cultured two hours with substance", "value": 1.5},
      {"measurement": "The level of expressed mRNA in the presence of chemical substance/The level of expressed mRNA in the absence of chemical substance", "setting": "yeast gene YNL115C, cultured two hours with substance", "value": 1.9},
      {"measurement": "The level of expressed mRNA in the presence of chemical substance/The level of expressed mRNA in the absence of chemical substance", "setting": "yeast gene YNL156C, cultured two hours with substance", "value": 1.9},
      {"measurement": "The level of expressed mRNA in the presence of chemical substance/The level of expressed mRNA in the absence of chemical substance", "setting": "yeast gene YNL190W, cultured two hours with substance", "value": 1.1},
      {"measurement": "The level of expressed mRNA in the presence of chemical substance/The level of expressed mRNA in the absence of chemical substance", "setting": "yeast gene YNL195C, cultured two hours with the chemical substance", "value": 11.7},
      {"measurement": "The level of expressed mRNA in the presence of chemical substance/The level of expressed mRNA in the absence of chemical substance", "setting": "yeast gene YNL208W, cultured two hours with substance", "value": 3.1},
      {"measurement": "The level of expressed mRNA in the presence of chemical substance/The level of expressed mRNA in the absence of chemical substance", "setting": "yeast gene YNL234W, cultured two hours with substance", "value": 3.3},
      {"measurement": "The level of expressed mRNA in the presence of chemical substance/The level of expressed mRNA in the absence of chemical substance", "setting": "yeast gene YNL277W", "value": 10.9},
      {"measurement": "The level of expressed mRNA in the presence of chemical substance/The level of expressed mRNA in the absence of chemical substance", "setting": "yeast gene YNL281W, cultured two hours with substance", "value": 1.6},
      {"measurement": "The level of expressed mRNA in the presence of chemical substance/The level of expressed mRNA in the absence of chemical substance", "setting": "yeast gene YNL300W, cultured two hours with substance", "value": 0.2},
      {"measurement": "The level of expressed mRNA in the presence of chemical substance/The level of expressed mRNA in the absence of chemical substance", "setting": "yeast gene YNL305C, cultured two hours with substance", "value": 2.1},
      {"measurement": "The level of expressed mRNA in the presence of chemical substance/The level of expressed mRNA in the absence of chemical substance", "setting": "yeast gene YNL331C", "value": 36.3},
      {"measurement": "The level of expressed mRNA in the presence of chemical substance/The level of expressed mRNA in the absence of chemical substance", "setting": "yeast gene YNL331C, cultured for two hours with substance", "value": 36.3},
      {"measurement": "The level of expressed mRNA in the presence of chemical substance/The level of expressed mRNA in the absence of chemical substance", "setting": "yeast gene YNR064C, cultured two hours with substance", "value": 2.1},
      {"measurement": "The level of expressed mRNA in the presence of chemical substance/The level of expressed mRNA in the absence of chemical substance", "setting": "yeast gene YNR068C, cultured two hours with substance", "value": 14.4},
      {"measurement": "The level of expressed mRNA in the presence of chemical substance/The level of expressed mRNA in the absence of chemical substance", "setting": "yeast gene YNR073C", "value": 16.8},
      {"measurement": "The level of expressed mRNA in the presence of chemical substance/The level of expressed mRNA in the absence of chemical substance", "setting": "yeast gene YOL002C, cultured two hours with the substance", "value": 0.3},
      {"measurement": "The level of expressed mRNA in the presence of chemical substance/The level of expressed mRNA in the absence of chemical substance", "setting": "yeast gene YOL032W, cultured two hours with substance", "value": 3.0},
      {"measurement": "The level of expressed mRNA in the presence of chemical substance/The level of expressed mRNA in the absence of chemical substance", "setting": "yeast gene YOL036W, cultured two hours with substance", "value": 2.8},
      {"measurement": "The level of expressed mRNA in the presence of chemical substance/The level of expressed mRNA in the absence of chemical substance", "setting": "yeast gene YOL047C, cultured two hours with substance", "value": 2.3},
      {"measurement": "The level of expressed mRNA in the presence of chemical substance/The level of expressed mRNA in the absence of chemical substance", "setting": "yeast gene YOL058W", "value": 15.7},
      {"measurement": "The level of expressed mRNA in the presence of chemical substance/The level of expressed mRNA in the absence of chemical substance", "setting": "yeast gene YOL071W, cultured two hours with substance", "value": 2.3},
      {"measurement": "The level of expressed mRNA in the presence of chemical substance/The level of expressed mRNA in the absence of chemical substance", "setting": "yeast gene YOL082W, cultured two hours with substance", "value": 2.0},
      {"measurement": "The level of expressed mRNA in the presence of chemical substance/The level of expressed mRNA in the absence of chemical substance", "setting": "yeast gene YOL083W, cultured two hours with substance", "value": 2.3},
      {"measurement": "The level of expressed mRNA in the presence of chemical substance/The level of expressed mRNA in the absence of chemical substance", "setting": "yeast gene YOL101C, cultured two hours with substance", "value": 0.3},
      {"measurement": "The level of expressed mRNA in the presence of chemical substance/The level of expressed mRNA in the absence of chemical substance", "setting": "yeast gene YOL117W, cultured two hours with substance", "value": 4.1},
      {"measurement": "The level of expressed mRNA in the presence of chemical substance/The level of expressed mRNA in the absence of chemical substance", "setting": "yeast gene YOL131W, cultured two hours with substance", "value": 8.1},
      {"measurement": "The level of expressed mRNA in the presence of chemical substance/The level of expressed mRNA in the absence of chemical substance", "setting": "yeast gene YOL150C, cultured two hours with substance", "value": 8.3},
      {"measurement": "The level of expressed mRNA in the presence of chemical substance/The level of expressed mRNA in the absence of chemical substance", "setting": "yeast gene YOL162W, cultured two hours with substance", "value": 6.8},
      {"measurement": "The level of expressed mRNA in the presence of chemical substance/The level of expressed mRNA in the absence of chemical substance", "setting": "yeast gene YOL163W (transport facilitation protein gene)", "value": 6.2},
      {"measurement": "The level of expressed mRNA in the presence of chemical substance/The level of expressed mRNA in the absence of chemical substance", "setting": "yeast gene YOL165C", "value": 23.3},
      {"measurement": "The level of expressed mRNA in the presence of chemical substance/The level of expressed mRNA in the absence of chemical substance", "setting": "yeast gene YOL165C, cultured for two hours with substance", "value": 23.3},
      {"measurement": "The level of expressed mRNA in the presence of chemical substance/The level of expressed mRNA in the absence of chemical substance", "setting": "yeast gene YOR019W, cultured two hours with substance", "value": 7.1},
      {"measurement": "The level of expressed mRNA in the presence of chemical substance/The level of expressed mRNA in the absence of chemical substance", "setting": "yeast gene YOR197W, cultured two hours with substance", "value": 0.7},
      {"measurement": "The level of expressed mRNA in the presence of chemical substance/The level of expressed mRNA in the absence of chemical substance", "setting": "yeast gene YOR248W, cultured two hours with substance", "value": 0.4},
      {"measurement": "The level of expressed mRNA in the presence of chemical substance/The level of expressed mRNA in the absence of chemical substance", "setting": "yeast gene YOR382W, cultured two hours with substance", "value": 12.8},
      {"measurement": "The level of expressed mRNA in the presence of chemical substance/The level of expressed mRNA in the absence of chemical substance", "setting": "yeast gene YOR383C", "value": 4.5},
      {"measurement": "The level of expressed mRNA in the presence of chemical substance/The level of expressed mRNA in the absence of chemical substance", "setting": "yeast gene YOR391C, cultured two hours with substance", "value": 18.1},
      {"measurement": "The level of expressed mRNA in the presence of chemical substance/The level of expressed mRNA in the absence of chemical substance", "setting": "yeast gene YPL017C, metabolism protein genes", "value": 6.7},
      {"measurement": "The level of expressed mRNA in the presence of chemical substance/The level of expressed mRNA in the absence of chemical substance", "setting": "yeast gene YPL052W, cultured two hours with substance", "value": 4.8},
      {"measurement": "The level of expressed mRNA in the presence of chemical substance/The level of expressed mRNA in the absence of chemical substance", "setting": "yeast gene YPL087W, cultured two hours with substance", "value": 2.2},
      {"measurement": "The level of expressed mRNA in the presence of chemical substance/The level of expressed mRNA in the absence of chemical substance", "setting": "yeast gene YPL171C, cultured for two hours with substance", "value": 50.6},
      {"measurement": "The level of expressed mRNA in the presence of chemical substance/The level of expressed mRNA in the absence of chemical substance", "setting": "yeast gene YPL196W, cultured two hours with substance", "value": 2.8},
      {"measurement": "The level of expressed mRNA in the presence of chemical substance/The level of expressed mRNA in the absence of chemical substance", "setting": "yeast gene YPL206C, cultured two hours with substance", "value": 1.1},
      {"measurement": "The level of expressed mRNA in the presence of chemical substance/The level of expressed mRNA in the absence of chemical substance", "setting": "yeast gene YPL222W, cultured two hours with substance", "value": 3.4},
      {"measurement": "The level of expressed mRNA in the presence of chemical substance/The level of expressed mRNA in the absence of chemical substance", "setting": "yeast gene YPL223C (stress protein genes)", "value": 16.5},
      {"measurement": "The level of expressed mRNA in the presence of chemical substance/The level of expressed mRNA in the absence of chemical substance", "setting": "yeast gene YPR023C, cultured two hours with substance", "value": 2.8},
      {"measurement": "The level of expressed mRNA in the presence of chemical substance/The level of expressed mRNA in the absence of chemical substance", "setting": "yeast gene YPR079W, cultured two hours with substance", "value": 2.8},
      {"measurement": "The level of expressed mRNA in the presence of chemical substance/The level of expressed mRNA in the absence of chemical substance", "setting": "yeast gene YPR151C, cultured two hours with substance", "value": 9.5}
    ]}
  ]
}
